Source: patent US10562857B2 (AFASCI, Inc., priority 2015, dated 2020)
“Also recorded” adds a separate entry of the source. Read-outs that look alike come from different tables or passages of the source.

Experiments:
[1] = molecular target: T1, Cav3.2 channel (Homo sapiens, UniProt O95180); test: Whole-cell patch clamp of T-type Cav3.2 channel expressed in HEK293 cells; assay type: cell-based
T1 construct: expressed in transfected cells; host or cells: HEK-293, tetracycline inducible expression system (Invitrogen)

[2] = tested on: SNI rats; test: Spared nerve injury (SNI) rats, von Frey monofilament test; assay type: in vivo, rat; details: pain in rats, 30 mg/kg, P.O.
[3] = tested on: SNI rats; test: as above; assay type: in vivo, rat; details: for duration of elevated mechanical thresholds: 10 mg/kg P.O.
Experimental: FIG. 3B. Mechanical pain threshold assessment (von Frey monofilament test) of SNI rats' left hindpaws. Each SNI rat received either EXAMPLE-106, -107, and -115 (each 30 mg/kg, 1 mL I.P.), or vehicle (1 mL I.P. 2% DMSO in 0.5% HPC). Sham rats also received vehicle I.P. injections. […] The sham-vehicle serves as a positive control. Thermal and mechanical pain responses were measured once every hour for 8 consecutive hours after I.P. treatment (n=8 rats per treatment group).
FIG. 4. Mechanical pain threshold assessment (von Frey monofilament test) of left hindpaws in another cohort of SNI rats. Each SNI rat received either EXAMPLE-128, -130, -132, or Z944 (as a reference compound, each 10 mg/kg, 2 mL oral gavage, P.O.). […] Mechanical pain responses were measured at pre-dosing, 1, 2, 4, and 6 hours post-treatment using von Frey monofilament test (n=8 rats per group).
In additional examples shown here, the analgesic effects were further evaluated in another rat species. Baseline thermal and mechanical thresholds of male rats (Sprague-Dawley rats, 275 g-325 g, Harlan) were taken prior to surgery; baseline thresholds were measured on the rats' left hindpaws. Thirty-two rats underwent the SNI surgery on their left hind leg; 8 rats underwent surgery without injury of the nerves as a sham group. Two weeks post-surgery, the thermal thresholds of each rat were reassessed. […] Each rat received either EXAMPLE-106, -107, -115 (each 30 mg/kg, 1 mL I.P.), or vehicle (2% DMSO in 0.5% HPC). Thermal and mechanical thresholds were measured at 1, 2, 3, 4, 5, 6, 7, and 8 hours post-treatment/dosing. […] The drug actions started around 1 hour post-injection and peaked between 2 and 3 hours, and the drug effects gradually declined to pre-treatment levels over 6-7 hours (FIGS. 3A and B).
In another cohort of SNI rats ((n=8 per group)), mechanical thresholds were measured at pre-dosing, 1, 2, 4, and 6 hours post-treatment using von Frey monofilament test.

[4] = Table 1, tested at at least 4 concentrations, read-out: IC50
[5] = 10 mg/kg oral gavage, P.O., 10 mg/kg
[6] = Table 3A, read-out: Cav3.2 IC50

T1 sequence (O95180 whole entry): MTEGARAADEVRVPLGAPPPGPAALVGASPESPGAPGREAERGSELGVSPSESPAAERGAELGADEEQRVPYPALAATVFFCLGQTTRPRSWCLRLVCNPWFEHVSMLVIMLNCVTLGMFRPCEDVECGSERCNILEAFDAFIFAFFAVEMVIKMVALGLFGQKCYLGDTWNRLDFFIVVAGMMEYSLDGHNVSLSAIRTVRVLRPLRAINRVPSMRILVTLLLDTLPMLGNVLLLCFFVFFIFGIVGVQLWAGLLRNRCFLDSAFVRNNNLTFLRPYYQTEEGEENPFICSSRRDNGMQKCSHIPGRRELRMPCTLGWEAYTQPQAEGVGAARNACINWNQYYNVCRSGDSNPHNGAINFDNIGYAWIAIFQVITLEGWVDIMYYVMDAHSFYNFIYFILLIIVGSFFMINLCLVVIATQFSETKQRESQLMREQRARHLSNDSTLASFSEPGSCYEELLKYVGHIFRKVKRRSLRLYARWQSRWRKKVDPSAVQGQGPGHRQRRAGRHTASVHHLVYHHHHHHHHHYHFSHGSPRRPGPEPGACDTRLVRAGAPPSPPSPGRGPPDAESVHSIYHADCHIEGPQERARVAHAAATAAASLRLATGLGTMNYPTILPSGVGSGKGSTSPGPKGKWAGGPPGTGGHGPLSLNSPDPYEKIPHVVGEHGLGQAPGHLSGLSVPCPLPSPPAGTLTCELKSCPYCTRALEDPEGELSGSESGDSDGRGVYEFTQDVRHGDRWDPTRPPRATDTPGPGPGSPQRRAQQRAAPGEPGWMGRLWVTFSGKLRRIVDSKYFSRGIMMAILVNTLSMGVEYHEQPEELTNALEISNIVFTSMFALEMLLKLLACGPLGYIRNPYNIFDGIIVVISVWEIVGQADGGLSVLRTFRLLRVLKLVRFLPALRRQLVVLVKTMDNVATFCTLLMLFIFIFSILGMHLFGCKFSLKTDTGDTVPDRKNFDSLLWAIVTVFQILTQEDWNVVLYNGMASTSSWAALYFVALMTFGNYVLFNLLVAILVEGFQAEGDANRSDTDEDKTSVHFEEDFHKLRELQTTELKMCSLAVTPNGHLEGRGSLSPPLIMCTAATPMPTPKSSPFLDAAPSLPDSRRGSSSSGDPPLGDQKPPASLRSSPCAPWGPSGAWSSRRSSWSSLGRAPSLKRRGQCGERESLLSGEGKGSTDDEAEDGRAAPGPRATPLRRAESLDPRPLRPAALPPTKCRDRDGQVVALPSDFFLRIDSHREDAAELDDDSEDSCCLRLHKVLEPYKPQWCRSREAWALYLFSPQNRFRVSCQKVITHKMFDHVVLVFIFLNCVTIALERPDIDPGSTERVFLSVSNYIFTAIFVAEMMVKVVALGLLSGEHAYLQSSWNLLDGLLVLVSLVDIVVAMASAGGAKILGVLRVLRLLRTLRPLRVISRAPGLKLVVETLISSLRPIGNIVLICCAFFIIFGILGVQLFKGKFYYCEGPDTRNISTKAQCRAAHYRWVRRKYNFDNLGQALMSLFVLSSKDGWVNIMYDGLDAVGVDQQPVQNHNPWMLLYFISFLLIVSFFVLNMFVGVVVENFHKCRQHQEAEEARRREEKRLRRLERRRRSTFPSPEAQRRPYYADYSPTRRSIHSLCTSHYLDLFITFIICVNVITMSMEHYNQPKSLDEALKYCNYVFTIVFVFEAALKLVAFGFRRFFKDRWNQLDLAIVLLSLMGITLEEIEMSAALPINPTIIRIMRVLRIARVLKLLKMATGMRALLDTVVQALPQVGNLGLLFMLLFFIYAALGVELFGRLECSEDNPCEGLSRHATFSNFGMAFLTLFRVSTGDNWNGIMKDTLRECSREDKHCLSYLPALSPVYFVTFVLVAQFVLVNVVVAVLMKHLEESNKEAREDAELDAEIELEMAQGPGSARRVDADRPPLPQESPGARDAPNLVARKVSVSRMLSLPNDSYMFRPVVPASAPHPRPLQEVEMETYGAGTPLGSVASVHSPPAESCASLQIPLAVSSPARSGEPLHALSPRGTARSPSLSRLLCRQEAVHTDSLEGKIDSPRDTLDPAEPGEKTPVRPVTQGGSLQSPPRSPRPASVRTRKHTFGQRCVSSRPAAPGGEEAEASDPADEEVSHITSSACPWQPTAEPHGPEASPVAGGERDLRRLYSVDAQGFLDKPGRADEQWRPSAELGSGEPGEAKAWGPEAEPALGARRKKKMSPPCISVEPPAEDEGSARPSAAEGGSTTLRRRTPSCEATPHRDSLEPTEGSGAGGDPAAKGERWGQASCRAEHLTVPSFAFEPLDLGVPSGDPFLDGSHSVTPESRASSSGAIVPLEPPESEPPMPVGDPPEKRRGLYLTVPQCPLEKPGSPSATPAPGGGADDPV

`CC(C)(C)NC(=O)CN1CCC2(CC1)C[C@H]2NC(=O)c1cc(Cl)cc(Cl)c1` (single isomer, unassigned) [Example 57, (R)—N-(6-(2-(tert-Butylamino)-2-oxoethyl)-6-azaspiro[2.5]octan-1-yl)-3,5-dichlorobenzamide or (S)—N-(6-(2-(tert-Butylamino)-2-oxoethyl)-6-azaspiro[2.5]octan-1-yl)-3,5-dichlorobenzamide] gave an IC50 [1, 4] of 60 nM and an IC50 ([1]; Table 2, read-out: Cav3.2 IC50) of 60 nM.

For `CC(C)(C)NC(=O)CN1CCC2(CC1)CC2NC(=O)c1cc(F)cc(Cl)c1` (single isomer, unassigned) [Example 128, (S)—N-(6-(2-(tert-Butylamino)-2-oxoethyl)-6-azaspiro[2.5]octan-1-yl)-3-chloro-5-fluorobenzamide or (R)—N-(6-(2-(tert-Butylamino)-2-oxoethyl)-6-azaspiro[2.5]octan-1-yl)-3-chloro-5-fluorobenzamide], the “SNI-Model Mechanical % of baseline” value [2] was 45 ± 15 % of baseline, the “duration of elevated mechanical thresholds” value (shortened to “duration”) [3] was “approximately 4 hours” and the “mechanical pain threshold of left hindpaw (allodynia)” value (shortened to “mechanical pain threshold”) [3, 5] was “elevated mechanical thresholds; also recorded: reduced allodynia”. For the same molecule, the IC50 [1, 4] was 110 nM, the IC50 ([1]; Table 2, read-out: Cav3.2 IC50) was 90 nM and the “% Use-Dep (use-dependent drug action)” value ([1]; Table 3A) was 21.3%. For the same molecule, the IC50 [1, 6] was 89 nM.

`CC(C)(C)NC(=O)CN1CCC2(CC1)C[C@H]2NC(=O)c1cc(F)cc(Cl)c1` (single isomer, unassigned) [Example 129, (R)—N-(6-(2-(tert-Butylamino)-2-oxoethyl)-6-azaspiro[2.5]octan-1-yl)-3-chloro-5-fluorobenzamide or (S)—N-(6-(2-(tert-Butylamino)-2-oxoethyl)-6-azaspiro[2.5]octan-1-yl)-3-chloro-5-fluorobenzamide] showed an IC50 [1, 4] of 870 nM and an IC50 ([1]; Table 2, read-out: Cav3.2 IC50) of 870 nM.

For `CC(C)(C)NC(=O)CN1CCC2(CC1)C[C@H]2NC(=O)c1cc(F)cc(C(F)(F)F)c1` (single isomer, unassigned) [Example 130, (R)—N-(6-(2-(tert-Butylamino)-2-oxoethyl)-6-azaspiro[2.5]octan-1-yl)-3-fluoro-5-(trifluoromethyl)benzamide or (S)—N-(6-(2-(tert-Butylamino)-2-oxoethyl)-6-azaspiro[2.5]octan-1-yl)-3-fluoro-5-(trifluoromethyl)benzamide], the “duration” value [3] was “approximately 4 hours”, the “mechanical pain threshold” value [3, 5] was “elevated mechanical thresholds; also recorded: reduced allodynia” and the IC50 [1, 4] was 180 nM. The IC50 ([1]; Table 2, read-out: Cav3.2 IC50) was 180 nM.

With `CC(C)(C)NC(=O)CN1CCC2(CC1)C[C@H]2C(=O)Nc1cc(C(F)(F)F)cc(C(F)(F)F)c1` (single isomer, unassigned) [Example 132, (R)—N-(3,5-Bis(trifluoromethyl)phenyl)-6-(2-(tert-butylamino)-2-oxoethyl)-6-azaspiro[2.5]octane-1-carboxamide or (S)—N-(3,5-Bis(trifluoromethyl)phenyl)-6-(2-(tert-butylamino)-2-oxoethyl)-6-azaspiro[2.5]octane-1-carboxamide] the “duration” value [3] was “approximately 4 hours”, the “mechanical pain threshold” value [3, 5] was “elevated mechanical thresholds; also recorded: reduced allodynia” and the IC50 ([1]; read-out: Cav3.2 IC50) was 140 nM. For the same molecule, the IC50 ([1]; read-out: IC50) was 140 nM.

`CC(C)(C)NC(=O)CN1CCC2(CC1)C[C@H]2NC(=O)c1cc(C(F)(F)F)cc(C(F)(F)F)c1` (single isomer, unassigned) [Example 144, ((R)—N-(6-(2-(tert-butylamino)-2-oxoethyl)-6-azaspiro[2.5]octan-1-yl)-3,5-bis(trifluoromethyl)benzamide or (S)—N-(6-(2-(tert-butylamino)-2-oxoethyl)-6-azaspiro[2.5]octan-1-yl)-3,5-bis(trifluoromethyl)benzamide] was tested, and the IC50 [1, 4] was 80 nM and the IC50 ([1]; Table 2, read-out: Cav3.2 IC50) was 80 nM.

With `CC(C)(C)NC(=O)CN1CCC2(CC1)C[C@H]2NC(=O)C12CC3CC(CC(C3)C1)C2` (single isomer, unassigned) [Example 145, N—((R)-6-(2-(tert-butylamino)-2-oxoethyl)-6-azaspiro[2.5]octan-1-yl)adamantane-1-carboxamide or N—((S)-6-(2-(tert-butylamino)-2-oxoethyl)-6-azaspiro[2.5]octan-1-yl)adamantane-1-carboxamide] the IC50 [1, 4] was 140 nM and the IC50 ([1]; Table 2, read-out: Cav3.2 IC50) was 140 nM.

`CC(C)(C)CCN1CCC2(CC1)C[C@H]2NC(=O)c1cc(C(F)(F)F)cc(C(F)(F)F)c1` (single isomer, unassigned) [Example 146, (R)—N-(6-(3,3-dimethylbutyl)-6-azaspiro[2.5]octan-1-yl)-3,5-bis(trifluoromethyl)benzamide or (S)—N-(6-(3,3-dimethylbutyl)-6-azaspiro[2.5]octan-1-yl)-3,5-bis(trifluoromethyl)benzamide] gave an IC50 [1, 4] of 70 nM and an IC50 ([1]; Table 2, read-out: Cav3.2 IC50) of 70 nM.

`CC(C)(C)CCN1CCC2(CC1)C[C@H]2NC(=O)c1cc(C(F)(F)F)ccc1Cl` (single isomer, unassigned) [Example 147, (R)-2-Chloro-N-(6-(3,3-dimethylbutyl)-6-azaspiro[2.5]octan-1-yl)-5-(trifluoromethyl)benzamide or (S)-2-Chloro-N-(6-(3,3-dimethylbutyl)-6-azaspiro[2.5]octan-1-yl)-5-(trifluoromethyl)benzamide] was tested, and the IC50 [1, 4] was 130 nM and the IC50 ([1]; Table 2, read-out: Cav3.2 IC50) was 130 nM.

For `CC(C)(C)NC(=O)CN1CCC2(CC1)CC2NC(=O)c1cc(F)cc(Cl)c1` (stereo not shown) [Example 17, N-(6-(2-(tert-Butylamino)-2-oxoethyl)-6-azaspiro[2.5]octan-1-yl)-3-chloro-5-fluorobenzamide], the IC50 [1, 4] was 240 nM and the IC50 ([1]; Table 2, read-out: Cav3.2 IC50) was 240 nM.

`CC(C)(C)CCN1CCC2(CC1)CC2NC(=O)c1cc(F)cc(Cl)c1` (stereo not shown) [Example 28, 3-Chloro-N-(6-(3,3-dimethylbutyl)-6-azaspiro[2.5]octan-1-yl)-5-fluorobenzamide] was tested, and the IC50 [1, 4] was 70 nM and the IC50 ([1]; Table 2, read-out: Cav3.2 IC50) was 70 nM.

For `O=C(Nc1nnc(-c2ccccc2)o1)c1ccc(Cl)s1` [Example 115, 5-Chloro-N-(5-phenyl-1,3,4-oxadiazol-2-yl)thiophene-2-carboxamide], the “start of drug action post-injection” value ([3]; 30 mg/kg I.P., thermal and mechanical thresholds) was “around 1 hour”, the “mechanical pain threshold” value ([3]; 30 mg/kg, 1 mL I.P.) was “elevated both thermal and mechanical thresholds; also recorded: reduced allodynia” and the IC50 [1, 4] was 930 nM.

`CC(C)(C)NC(=O)CN1CCC2(CC1)CC2C(=O)Nc1cc(F)cc(C(F)(F)F)c1` (stereo not shown) [Example 141, 6-(2-(tert-Butylamino)-2-oxoethyl)-N-(3-fluoro-5-(trifluoromethyl)phenyl)-6-azaspiro[2.5]octane-1-carboxamide] gave an IC50 [1, 4] of 180 nM and an IC50 ([1]; Table 2, read-out: Cav3.2 IC50) of 180 nM.

For `CC(C)(C)CCN1C[C@@H]2[C@@H](CNC(=O)c3cc(Cl)cc(Cl)c3)[C@@H]2C1` [ML218, 3,5-Dichloro-N-[[(1α,5α,6-exo,6α)-3-(3,3-dimethylbutyl)-3-azabicyclo[3.1.0]hex-6-yl]methyl]benzamide, reference compound], the “SNI-Model Mechanical % of baseline” value [2] was 45 ± 11 % of baseline, the IC50 ([1]; Table 2, read-out: Cav3.2 IC50) was 310 nM and the “% Use-Dep (use-dependent drug action)” value ([1]; Table 3A) was 19.2%. It also gave an IC50 [1, 6] of 310 nM.

In the case of `CC(C)(C)NC(=O)CN1CCC(CNC(=O)c2cc(F)cc(Cl)c2)CC1` [Z944, reference compound], the “SNI-Model Mechanical % of baseline” value [2] is reported as 28 ± 18 % of baseline, the “duration” value [3] is reported as “approximately 4 hours” and the “mechanical pain threshold” value [3, 5] is reported as “elevated mechanical thresholds; also recorded: reduced allodynia”. For the same molecule, the IC50 ([1]; Table 2, read-out: Cav3.2 IC50) was 190 nM, the “% Use-Dep (use-dependent drug action)” value ([1]; Table 3A) was 17.6% and the IC50 [1, 6] was 200 nM.
